Measurements reported in patent publication US20140336073A1, “METHOD OF DETERMINATION OF CANCER CELL DRUG SENSITIVITY TOWARDS AURORA KINASE INHIBITORS” (PALACKY UNIVERSITY, OLOMOUC, priority 2011, published 2014).
Read-outs that look alike come from different tables or passages of the source.

Experiments:
[1] = tested on: one HCT116 p53+/+: CYC116 resistant clone; experiment: MTT assay of CYC116 with or without Bcl-xL siRNA knockdown; type: cell-based; details: Homo sapiens, HCT-116
Experimental: (§1) This method is performed based on the principle that viable cells can reduce yellow colored MTT (3-(4,5-dimethylthiazol-2-yl)-2,5-diphenyltetrazolium bromide) salt to purple colored formazan. The intensity of the purple colored produced is directly proportional to number of viable cells, which can be measured […]. To determine the half inhibitory concentration (IC50) of any medicinal agent MTT assay is very reliable and well accepted. […] The assay was carried out in 2 technical replicates for each concentration and in 3 biological replicates. Alongside blank and controls were included and incubated for 96 hrs. At the end of the assay time point 10 μl of MTT/well (Sigma) (10 mg/ml) was added and incubated until the appearance of violet formazan crystals. The formazan was dissolved with 100 μl/well 10% aqueous SDS (pH: 5.5) by incubating the plates at 37° C. overnight. The optical density was measured at 540 nm using the Labsystem IMS reader and the […] values were determined using Chemorezist software.

[2] = target: VEGFR2 (Homo sapiens, UniProt P35968); details: cited from earlier work
Chain of VEGFR2 (P35968 20-1356): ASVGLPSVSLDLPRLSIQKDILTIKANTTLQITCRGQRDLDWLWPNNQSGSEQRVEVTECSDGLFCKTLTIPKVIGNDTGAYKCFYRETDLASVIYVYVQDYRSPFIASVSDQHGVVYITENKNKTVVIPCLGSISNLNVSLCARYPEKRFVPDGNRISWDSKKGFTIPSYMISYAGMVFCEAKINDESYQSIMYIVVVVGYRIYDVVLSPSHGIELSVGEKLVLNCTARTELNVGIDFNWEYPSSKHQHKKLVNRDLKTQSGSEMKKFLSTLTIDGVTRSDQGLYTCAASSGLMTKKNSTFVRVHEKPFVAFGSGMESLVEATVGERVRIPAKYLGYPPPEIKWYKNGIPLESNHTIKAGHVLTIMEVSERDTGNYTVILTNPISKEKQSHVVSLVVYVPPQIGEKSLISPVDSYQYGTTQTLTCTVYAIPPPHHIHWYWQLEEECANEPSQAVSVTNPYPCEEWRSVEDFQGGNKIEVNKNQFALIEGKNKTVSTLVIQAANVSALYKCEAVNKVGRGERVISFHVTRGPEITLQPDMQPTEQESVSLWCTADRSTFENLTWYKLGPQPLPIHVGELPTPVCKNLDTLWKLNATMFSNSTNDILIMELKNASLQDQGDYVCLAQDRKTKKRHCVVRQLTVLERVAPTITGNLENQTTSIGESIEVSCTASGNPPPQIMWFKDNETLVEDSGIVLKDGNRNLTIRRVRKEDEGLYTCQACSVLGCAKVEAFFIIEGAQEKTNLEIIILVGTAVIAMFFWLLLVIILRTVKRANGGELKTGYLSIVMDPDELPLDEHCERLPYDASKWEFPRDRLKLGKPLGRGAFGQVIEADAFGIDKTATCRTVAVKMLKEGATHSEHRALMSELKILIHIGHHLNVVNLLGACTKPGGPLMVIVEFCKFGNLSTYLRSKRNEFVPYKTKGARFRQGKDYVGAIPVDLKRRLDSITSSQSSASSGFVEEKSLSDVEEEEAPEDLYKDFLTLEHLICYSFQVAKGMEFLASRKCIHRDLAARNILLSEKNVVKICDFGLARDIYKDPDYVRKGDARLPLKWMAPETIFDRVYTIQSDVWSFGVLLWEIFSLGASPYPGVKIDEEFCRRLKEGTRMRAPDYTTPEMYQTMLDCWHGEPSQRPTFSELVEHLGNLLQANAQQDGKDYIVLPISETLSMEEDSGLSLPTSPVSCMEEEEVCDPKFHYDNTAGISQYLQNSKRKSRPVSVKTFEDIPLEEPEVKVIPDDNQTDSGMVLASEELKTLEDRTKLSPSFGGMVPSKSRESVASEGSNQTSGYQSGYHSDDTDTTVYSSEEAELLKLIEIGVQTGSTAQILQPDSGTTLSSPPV

[3] = tested on: HCT116 p53+/+ parent; experiment: cells; details: for IC50: Homo sapiens
Experimental: as §1

[4] = tested on: primary tumor samples; experiment: 96-h MTT cell proliferation assay on primary tumor biopsies; type: cell-based; details: Homo sapiens
[5] = target: Flt-3 (Homo sapiens, UniProt P36888); details: cited from earlier work
Chain of Flt-3 (P36888 27-993): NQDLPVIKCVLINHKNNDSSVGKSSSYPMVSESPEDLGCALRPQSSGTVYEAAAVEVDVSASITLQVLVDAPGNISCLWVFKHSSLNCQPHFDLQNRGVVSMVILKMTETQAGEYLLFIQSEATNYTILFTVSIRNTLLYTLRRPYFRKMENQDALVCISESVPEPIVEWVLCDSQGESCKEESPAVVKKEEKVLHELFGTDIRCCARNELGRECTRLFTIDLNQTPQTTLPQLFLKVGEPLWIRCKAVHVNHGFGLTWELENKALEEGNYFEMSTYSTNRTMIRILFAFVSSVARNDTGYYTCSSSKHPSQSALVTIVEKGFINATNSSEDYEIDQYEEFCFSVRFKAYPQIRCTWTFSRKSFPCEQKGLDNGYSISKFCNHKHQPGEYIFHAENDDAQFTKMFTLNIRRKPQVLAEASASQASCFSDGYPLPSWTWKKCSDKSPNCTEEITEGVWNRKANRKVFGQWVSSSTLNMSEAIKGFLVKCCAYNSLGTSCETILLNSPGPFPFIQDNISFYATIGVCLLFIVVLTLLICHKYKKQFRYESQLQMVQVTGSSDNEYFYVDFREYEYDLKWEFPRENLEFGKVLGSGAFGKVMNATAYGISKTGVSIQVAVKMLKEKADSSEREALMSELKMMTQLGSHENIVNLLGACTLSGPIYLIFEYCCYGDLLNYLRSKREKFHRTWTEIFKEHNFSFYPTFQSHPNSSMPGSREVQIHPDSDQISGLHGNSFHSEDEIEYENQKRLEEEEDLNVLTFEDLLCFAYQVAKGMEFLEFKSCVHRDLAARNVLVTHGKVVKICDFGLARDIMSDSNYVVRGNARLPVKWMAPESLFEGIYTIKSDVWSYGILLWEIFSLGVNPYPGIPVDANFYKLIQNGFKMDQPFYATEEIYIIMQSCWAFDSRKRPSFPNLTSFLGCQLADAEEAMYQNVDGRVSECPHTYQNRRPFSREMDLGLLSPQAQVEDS

[6] = tested on: CYP1A1; experiment: CYP1A1 expression after CYC116 treatment for 48 h; type: cell-based; details: HCT116 and HCT116 p53−/− treated with CYC116 for 48 h
Source text: CYP1A1 is involved in the metabolism of polycyclic aromatic hydrocarbons (PAH). In tobacco smokers CYP1A1 transforms PAH into procarcinogens. CYP1A1 expression was reported in pulmonary cancers and also altered expression in many lung tumors (McLemore T. L. et al., Journal of the National Cancer Institute 1990; 82, 1333-39).

[7] = tested on: R2.3 (HCT116 p53−/− CYC116 resistant clone); experiment: Cell proliferation (MTT) IC50, cross-resistance profile; type: cell-based; details: for IC50: Homo sapiens, HCT-116, clone R2.3; for fold increase of IC50 vs parent: clone R2.3 vs HCT116 p53−/− parent
Experimental: (§2) Colonies were isolated and bulked up for further studies. […] [1]
as §1

[8] = tested on: R3.1 (HCT116 p53+/+ ZM447439 resistant clone); experiment: as above; type: cell-based; details: for IC50: Homo sapiens, HCT-116, clone R3.1; for fold increase of IC50 vs parent: clone R3.1 vs HCT116 p53+/+ parent
Experimental: as §2, §1

[9] = tested on: R2.1 (HCT116 p53−/− CYC116 resistant clone); experiment: as above; type: cell-based; details: for IC50: Homo sapiens, HCT-116, clone R2.1; for fold increase of IC50 vs parent: clone R2.1 vs HCT116 p53−/− parent
Experimental: as §2, §1

[10] = tested on: R1.2 (HCT116 p53+/+ CYC116 resistant clone); experiment: as above; type: cell-based; details: for IC50: Homo sapiens, HCT-116, clone R1.2; for fold increase of IC50 vs parent: clone R1.2 vs HCT116 p53+/+ parent
Experimental: as §2, §1

[11] = tested on: R3.2 (HCT116 p53+/+ ZM447439 resistant clone); experiment: as above; type: cell-based; details: for IC50: Homo sapiens, HCT-116, clone R3.2; for fold increase of IC50 vs parent: clone R3.2 vs HCT116 p53+/+ parent
Experimental: as §2, §1

[12] = tested on: R4.2 (HCT116 p53−/− ZM447439 resistant clone); experiment: as above; type: cell-based; details: for IC50: Homo sapiens, HCT-116, clone R4.2; for fold increase of IC50 vs parent: clone R4.2 vs HCT116 p53−/− parent
Experimental: as §2, §1

[13] = tested on: R4.1 (HCT116 p53−/− ZM447439 resistant clone); experiment: as above; type: cell-based; details: for IC50: Homo sapiens, HCT-116, clone R4.1; for fold increase of IC50 vs parent: clone R4.1 vs HCT116 p53−/− parent
Experimental: as §2, §1

[14] = tested on: R4.3 (HCT116 p53−/− ZM447439 resistant clone); experiment: as above; type: cell-based; details: for IC50: Homo sapiens, HCT-116, clone R4.3; for fold increase of IC50 vs parent: clone R4.3 vs HCT116 p53−/− parent
Experimental: as §2, §1

[15] = tested on: R2.2 (HCT116 p53−/− CYC116 resistant clone); experiment: as above; type: cell-based; details: for IC50: Homo sapiens, HCT-116, clone R2.2; for fold increase of IC50 vs parent: clone R2.2 vs HCT116 p53−/− parent
Experimental: as §2, §1

[16] = tested on: R1.1 (HCT116 p53+/+ CYC116 resistant clone); experiment: as above; type: cell-based; details: for IC50: Homo sapiens, HCT-116, clone R1.1; for fold increase of IC50 vs parent: clone R1.1 vs HCT116 p53+/+ parent
Experimental: as §2, §1

[17] = tested on: R3.3 (HCT116 p53+/+ ZM447439 resistant clone); experiment: as above; type: cell-based; details: for IC50: Homo sapiens, HCT-116, clone R3.3; for fold increase of IC50 vs parent: clone R3.3 vs HCT116 p53+/+ parent
Experimental: as §2, §1

[18] = tested on: R1.3 (HCT116 p53+/+ CYC116 resistant clone); experiment: as above; type: cell-based; details: for IC50: Homo sapiens, HCT-116, clone R1.3; for fold increase of IC50 vs parent: clone R1.3 vs HCT116 p53+/+ parent
Experimental: as §2, §1

[19] = tested on: HCT116 p53−/− parent; experiment: as above; type: cell-based; details: Homo sapiens, HCT-116
Experimental: This method is performed based on the principle that viable cells can reduce yellow colored MTT (3-(4,5-dimethylthiazol-2-yl)-2,5-diphenyltetrazolium bromide) salt to purple colored formazan. The intensity of the purple colored produced is directly proportional to number of viable cells, which can be measured calorimetrically. […] The assay was carried out in 2 technical replicates for each concentration and in 3 biological replicates. Alongside blank and controls were included and incubated for 96 hrs. At the end of the assay time point 10 μl of MTT/well (Sigma) (10 mg/ml) was added and incubated until the appearance of violet formazan crystals. The formazan was dissolved with 100 μl/well 10% aqueous SDS (pH: 5.5) by incubating the plates at 37° C. overnight. The optical density was measured at 540 nm using the Labsystem IMS reader and the 1050 values were determined using Chemorezist software.

[20] = target: Bcl-w (Homo sapiens, UniProt Q92843); details: cited from earlier work
Chain of Bcl-w (Q92843 whole entry): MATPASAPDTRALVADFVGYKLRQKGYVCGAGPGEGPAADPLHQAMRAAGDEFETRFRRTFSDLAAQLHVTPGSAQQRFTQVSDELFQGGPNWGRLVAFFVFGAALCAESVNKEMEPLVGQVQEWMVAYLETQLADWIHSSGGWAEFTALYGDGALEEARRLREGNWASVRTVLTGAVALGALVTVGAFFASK

[21] = tested on: p53+/+ ZM447439 resistant clones; experiment: MTT based cell proliferation assay of ABT-263; details: diploid p53+/+ ZM447439 resistant clones, 96 hrs MTT
Experimental: (§3) The MTT assay was performed in three independent replicates (n=3).
as §1

[22] = tested on: p53−/− ZM447439 resistant clones; experiment: MTT based cell proliferation assay of ABT-263; details: diploid p53−/− ZM447439 resistant clones, 96 hrs MTT
Experimental: as §3, §1

[23] = tested on: HCT116 p53−/−: CYC116 resistant clones; experiment: MTT based cell proliferation assay of ABT-263; details: polyploid clones, 96 hrs MTT
Experimental: as §3, §1

SMILES	IC50 ([3]; HCT-116, read-out: mean IC50)	IC50 [7]	IC50 [8]	fold increase of IC50 vs parent [8]	IC50 [9]	IC50 [10]	fold increase of IC50 vs parent [10]	IC50 [11]	fold increase of IC50 vs parent [11]	IC50 [12]	IC50 [13]	IC50 [14]	IC50 [15]	IC50 [16]	fold increase of IC50 vs parent [16]	IC50 [17]	fold increase of IC50 vs parent [17]	IC50 [18]	fold increase of IC50 vs parent [18]	IC50 [19]	further results
Cc1nc(N)sc1-c1ccnc(Nc2ccc(N3CCOCC3)cc2)n1 [CYC116, 4-methyl-5-(2-(4-morpholinophenylamino)pyrimidin-4-yl)thiazol-2-amine]																					IC50 ([1]; read-out: IC50 value): 6 µM; IC50 ([1]; read-out: IC50 value after knockdown of Bcl-xL): 0.9 µM; inhibition of VEGFR2 [2]: inhibits; sensitization towards CYC116 by knockdown of Bcl-xL ([3]; Bcl-xL siRNA knockdown in HCT116 parent cell line (low Bcl-xL expression)): no sensitization effect; IC50 ([3]; HCT-116, read-out: IC50 value): 340 nM; IC50 ([4]; 13 sensitive primary tumor samples): ≤ 4.42 µM; IC50 ([4]; 14 resistant primary tumor samples): ≤ 95 µM; inhibition of Flt-3 [5]: inhibits; up-regulation of CYP1A1 [6]: not detected
Cc1cc(Nc2cc(N3CCN(C)CC3)nc(Sc3ccc(NC(=O)C4CC4)cc3)n2)n[nH]1 [VX-680, N-[4-[4-[4-methylpiperazin-1-yl)-6-[(5-methyl-1H-pyrazol-3-yl)amino]pyrimidin-2-yl]sulfanylphenyl]cyclopropanecarboxamide]	30 nM	2.4 µM	2600 nM	87 fold	4 µM	2 µM	67 fold	700 nM	23 fold	1.5 µM	0.8 µM	3 µM	2000 nM	1.9 µM	63 fold	90 nM	3 fold	1 µM	33 fold	100 nM	fold increase of IC50 vs parent [7]: 24 fold; fold increase of IC50 vs parent [9]: 40 fold; fold increase of IC50 vs parent [12]: 15 fold; fold increase of IC50 vs parent [13]: 8 fold; fold increase of IC50 vs parent [14]: 13 fold; fold increase of IC50 vs parent [15]: 20 fold
CC1(C)CCC(c2ccc(Cl)cc2)=C(CN2CCN(c3ccc(C(=O)NS(=O)(=O)c4ccc(N[C@H](CCN5CCOCC5)CSc5ccccc5)c(S(=O)(=O)C(F)(F)F)c4)cc3)CC2)C1 [ABT-263, (R)4-(4-((4′-chloro-4,4-dimethyl-3,4,5,6-tetrahydro[1,1′-biphenyl]-2-yl)methyl)piperazin-1-yl)-N-((4-((4-morpholino-1-(phenylthio)butan-2-yl)amino)-3-((trifluoromethyl)sulfonyl)phenyl)sulfonyl)benzamide]																					Ki [20]: < 1 nM; response to ABT-263 [21]: resistant; response to ABT-263 [22]: resistant; response to ABT-263 compared to parent HCT116 p53−/− cells [23]: significant cross-resistance
O=C(O)c1ccc(Nc2ncc3c(n2)-c2ccc(Cl)cc2C(c2c(F)cccc2F)=NC3)cc1 [MLN8054, 4-[[9-chloro-7-(2,6-difluorophenyl)-5H-pyrimido[5,4-d][2]benzazepin-2-yl]amino]benzoic acid]	190 nM	18 µM	2000 nM	10 fold	30 µM	15 µM	79 fold	2000 nM	10 fold	18.6 µM	22 µM	39 µM	3000 nM	31 µM	163 fold	400 nM	2 fold	16 µM	84 fold	170 nM	fold increase of IC50 vs parent [7]: 106 fold; fold increase of IC50 vs parent [9]: 176 fold; fold increase of IC50 vs parent [12]: 109 fold; fold increase of IC50 vs parent [13]: 129 fold; fold increase of IC50 vs parent [14]: 229 fold; fold increase of IC50 vs parent [15]: 18 fold
CCN(CCCOc1ccc2c(Nc3cc(CC(=O)Nc4cccc(F)c4)n[nH]3)ncnc2c1)CCOP(=O)(O)O [AZD1152, 2-[ethyl-[3-[4-[[5-[2-(3-fluoroanilino)-2-oxoethyl]-1Hpyrazo[3 yl]amino]quinazolin7-yl]oxypropyl]amino]ethyldihydrogen phosphate]	10 nM	> 50 µM	36000 nM	3600 fold	> 50 µM	18 µM	1800 fold	8000 nM	800 fold	> 50 µM	> 50 µM	> 50 µM	> 50000 nM	17 µM	1700 fold	70 nM	7 fold	11 µM	1100 fold	> 50000 nM	
